Reference: US11166460B2, “α-amino acrylate microbicide, and preparation method therefor and uses thereof” (priority 2017, dated 2021)
In brackets after ≈: the same amount, converted by molar mass. Read-outs that look alike come from different tables or passages of the source.

Key:
[1] = system: Physalospora piricola; experiment: Fungicidal activity, fungi growth rate method, PP; assay type: cell-based; conditions: 50 μg/mL
[2] = system: Sclerotinia sclerotiorum; experiment: microbe, parasite or virus in culture; assay type: cell-based; conditions: Sclerotinia sclerotiorum; for inhibition at 50 µg/mL: 50 μg/mL
[3] = system: tobacco mosaic virus (TMV); experiment: Anti-TMV inducing activity (induction mode), tobacco seedlings; assay type: in vivo; conditions: Tobacco mosaic virus, read-out: Anti-TMV activity, Induction effect (inhibition), 100 μg/mL, tobacco seedlings
[4] = system: Alternaria solani; experiment: Fungicidal activity, fungi growth rate method, AS; assay type: cell-based; conditions: Alternaria solani, 50 μg/mL
[5] = system: tobacco mosaic virus (TMV); experiment: Anti-TMV curative activity (treatment mode), live friction inoculation on tobacco seedlings; assay type: in vivo; conditions: Tobacco mosaic virus, read-out: Anti-TMV activity, Curative effect (inhibition), 100 μg/mL, tobacco seedlings, checked on seventh day
[6] = system: Pellicularia sasakii; experiment: Fungicidal activity, fungi growth rate method, PS; assay type: cell-based; conditions: 50 μg/mL
[7] = system: Rhizoctonia cerealis; experiment: Fungicidal activity, fungi growth rate method, RC; assay type: cell-based; conditions: Ceratobasidium cereale, 50 μg/mL
[8] = system: Botrytis cinerea; experiment: Fungicidal activity, fungi growth rate method, BC; assay type: cell-based; conditions: Botrytis cinerea; 50 μg/mL; read-out: Fungicidal activity, inhibition, BC
[9] = system: tobacco mosaic virus (TMV); experiment: Anti-TMV protective activity (protection mode), live friction inoculation on tobacco seedlings; assay type: in vivo; conditions: Tobacco mosaic virus, read-out: Anti-TMV activity, Protection effect (inhibition)
[10] = system: Cercospora arachidicola; experiment: Fungicidal activity, fungi growth rate method, CA; assay type: cell-based; conditions: Mycosphaerella arachidis, 50 μg/mL
[11] = system: Phytophthora infestans (Mont) de Bary; experiment: microbe, parasite or virus in culture; assay type: cell-based; conditions: Phytophthora infestans
[12] = system: tobacco mosaic virus (TMV); experiment: Anti-TMV inactivation activity (inactivation mode), compound mixed with TMV before inoculation of tobacco leaves; assay type: in vivo; conditions: Tobacco mosaic virus, read-out: Anti-TMV activity, Inactivation effect (inhibition)
[13] = system: wheat Gibberella zeae; experiment: microbe, parasite or virus in culture; assay type: cell-based; conditions: Fusarium graminearum
[14] = read-out: Fungicidal activity, inhibition, PP
[15] = read-out: Fungicidal activity (inhibition) against SS: Sclerotinia sclerotiorum
[16] = read-out: Fungicidal activity, inhibition, SS
[17] = read-out: Fungicidal activity, inhibition, AS
[18] = read-out: Fungicidal activity, inhibition, PS
[19] = read-out: Fungicidal activity, inhibition, RC
[20] = read-out: Fungicidal activity, inhibition, CA
[21] = read-out: Fungicidal activity, inhibition, PI
[22] = read-out: Fungicidal activity, inhibition, GZ

SMILES | inhibition at 50 µg/mL [1, 14] [%] | inhibition at 50 µg/mL [2, 15] [%] | inhibition at 50 µg/mL [2, 16] [%] | inhibition at 100 µg/mL [3] [%] | inhibition at 50 µg/mL [4, 17] [%] | inhibition at 100 µg/mL [5] [%] | inhibition at 50 µg/mL [6, 18] [%] | inhibition at 50 µg/mL [7, 19] [%] | inhibition at 50 µg/mL [8] [%] | inhibition at 100 µg/mL [9] [%] | melting point [°C] | inhibition at 50 µg/mL [10, 20] [%] | inhibition at 50 µg/mL [11, 21] [%] | inhibition at 100 µg/mL [12] [%] | inhibition at 50 µg/mL [13, 22] [%] | further results
O=C(N/C(=C\c1ccccc1)C(=O)N1CCC(O)(c2ccc(Br)cc2)CC1)C1CCCCC1 [Compound 2, (Z)-N-[1-[[4-(4-bromophenyl)-4-hydroxy-1-piperidinyl]carbonyl]-2-phenylethenyl]cyclohexanecarboxamide] | 7 | 100 | 100 | 77 | 15 | 50 | 19 | 16 | 15 | 43 | 124 to 126 | 12 | 23 | 81 | 22 | EC90 ([2]; read-out: EC90 against S. sclerotiorum in vitro): 565 µg/mL (≈ 1110 µM)
COc1ccc(CNC(=O)/C(=C/c2ccccc2)NC(=O)c2ccccc2)cc1 [Compound 54, N-[(1Z)-2-phenyl-1-[[(4-methoxyphenylmethyl)amino]carbonyl]ethenyl]benzamide] | 13 | 60 to 80 | 75 | 0 | 16 | 49 | 17 | 17 | 12 | 0 | 138 to 140 | 16 | 2 | 28 | 42 | 
O=C(NC(Cc1ccccc1)C(=O)N1CCC(O)(c2ccc(Br)cc2)CC1)C1CCCCC1 (centres unmarked) [Compound 50, N-[1-[[4-(4-bromophenyl)-4-hydroxy-1-piperidinyl]carbonyl]-2-phenylethyl]cyclohexanecarboxamide] | 18 |  | 50 | 34 | 29 | 37 | 20 | 23 | 29 | 47 | 200 to 202 | 26 | 26 | 34 | 29 | 
CCOC(=O)c1csc(C2CCN(C(=O)/C(=C/c3ccccc3)NC(=O)c3ccccc3)CC2)n1 [Compound 30, (Z)-N-[1-[[[4-[2-(ethylthiazole-4-carboxylate)]]-1-piperidinyl]carbonyl]-2-phenylethenyl]benzamide] | 2 | 80 to 95 | 82 | 2 | 13 | 3 | 13 | 4 | 17 | 0 | 114 to 115 | 7 | 9 | 0 | 11 | 
O=C(N/C(=C\c1ccc(C(F)(F)F)cc1)C(=O)N1CCC(O)(c2ccc(Br)cc2)CC1)c1ccccc1 [Compound 20, (Z)-N-[1-[[4-(4-bromophenyl)-4-hydroxy-1-piperidinyl]carbonyl]-2-(4-trifluoromethylphenyl)ethenyl]benzamide] | 10 |  | 67 | 53 | 17 | 0 | 21 | 19 | 7 | 52 | 137 to 139 | 16 | 21 | 0 | 7 | 
O=C(N/C(=C\c1ccccc1)C(=O)N1CCC(O)(c2ccc(Br)cc2)CC1)c1cccs1 [Compound 14, (Z)-N-[1-[[4-(4-bromophenyl)-4-hydroxy-1-piperidinyl]carbonyl]-2-phenylethenyl]-2-thiophenecarboxamide] | 0 | 80 to 95 | 83 | 52 | 17 | 39 | 3 | 8 | 24 | 34 | 134 to 136 | 7 | 5 | 30 | 7 | 
O=C(N/C(=C\c1ccccc1)C(=O)N1CCC(O)CC1)c1ccccc1 [Compound 45, (Z)-N-[1-[(4-hydroxy-1-piperidinyl)carbonyl]-2-phenylethenyl]benzamide] | 6 | 38 | 38 | 52 | 25 | 30 | 3 | 13 | 12 | 54 | 115 to 117 | 6 | 24 | 22 | 43 | inhibition at 50 µg/mL ([1]; read-out: Fungicidal activity (inhibition) against PP: Physalospora piricola): < 20%; inhibition at 50 µg/mL ([4]; read-out: Fungicidal activity (inhibition) against AS: Alternaria solani): < 30%; inhibition at 50 µg/mL ([6]; read-out: Fungicidal activity (inhibition) against PS: Pellicularia sasakii): < 30%; inhibition at 50 µg/mL ([7]; read-out: Fungicidal activity (inhibition) against RC: Rhizoctonia cerealis): < 20%; inhibition at 50 µg/mL ([10]; read-out: Fungicidal activity (inhibition) against CA: Cercospora arachidicola): < 25%; inhibition at 50 µg/mL ([11]; read-out: Fungicidal activity (inhibition) against PI: Phytophthora infestans (Mont) de Bary): < 25%; inhibition at 50 µg/mL ([13]; read-out: Fungicidal activity (inhibition) against GZ: wheat Gibberella zeae): < 45%
COC(=O)CCNC(=O)/C(=C/c1ccccc1)NC(=O)c1ccccc1 [Compound 35, (Z)-N-[1-[[1-(3-methyl propionate)amino]carbonyl]-2-phenylethenyl]benzamide] | 3 |  | 67 | 23 | 25 | 0 | 0 | 7 | 21 | 3 | 139 to 141 | 3 | 13 | 16 | 7 | 
